Measurements from ChEMBL document CHEMBL1158467, “In vitro intrinsic clearance-based optimization of N3-phenylpyrazinones as corticotropin-releasing factor-1 (CRF1) receptor antagonists” (J Med Chem, 2009).
Converted amounts (≈) assume the structure as drawn.

Columns and labels:
[1] = Intrinsic clearance in human liver microsomes at 1 uM; assay type: ADME, Microsome
[2] = target: T1, Corticotropin-releasing factor receptor 1 (Rattus norvegicus, UniProt P35353); experiment: Displacement of [125I]ovine-CRF from CRF1 receptor in rat frontal cortex by rapid filtration technique; assay type: tissue-based
T1 sequence (P35353 whole entry): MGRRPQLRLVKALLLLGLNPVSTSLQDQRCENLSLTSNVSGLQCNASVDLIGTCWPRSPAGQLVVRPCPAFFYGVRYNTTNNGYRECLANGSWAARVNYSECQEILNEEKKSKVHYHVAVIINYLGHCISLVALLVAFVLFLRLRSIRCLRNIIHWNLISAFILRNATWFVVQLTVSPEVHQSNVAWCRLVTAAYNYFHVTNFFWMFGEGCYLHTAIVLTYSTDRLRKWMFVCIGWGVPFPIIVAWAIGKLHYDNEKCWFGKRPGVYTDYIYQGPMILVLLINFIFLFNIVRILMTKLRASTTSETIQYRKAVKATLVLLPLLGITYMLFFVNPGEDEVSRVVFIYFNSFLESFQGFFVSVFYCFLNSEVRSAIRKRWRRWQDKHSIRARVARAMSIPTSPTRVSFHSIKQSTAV

[3] = Aqueous solubility at pH 1; assay type: physicochemical
[4] = Oral bioavailability in Sprague-Dawley rat at 10 mg/kg dosed as aqueous solution of oleoyl macrogolglyceride/DMAC/polysorbate 80, 85:10:5 within 0.25 to 24 hrs; assay type: ADME, organism-based; conditions: Sprague-Dawley, in vivo
[5] = Aqueous solubility at pH 6.5; assay type: physicochemical
[6] = AUC in Sprague-Dawley rat at 10 mg/kg, po dosed as aqueous solution of oleoyl macrogolglyceride/DMAC/polysorbate 80, 85:10:5 within 0.25 to 24 hrs; assay type: ADME, organism-based; design: time 0.25-24 hr, dose 10 mg/kg, route oral; conditions: plasma
[7] = Cmax in Sprague-Dawley rat at 10 mg/kg, po dosed as aqueous solution of oleoyl macrogolglyceride/DMAC/polysorbate 80, 85:10:5 within 0.25 to 24 hrs; assay type: ADME, organism-based; design: dose 10 mg/kg, route oral; conditions: Sprague-Dawley, in vivo
[8] = Cmax in Sprague-Dawley rat at 10 mg/kg, po dosed as aqueous suspension of 1% polysorbate 80 in 0.5% methylcellulose within 0.25 to 24 hrs; assay type: ADME, organism-based; design: dose 10 mg/kg, route oral; conditions: in vivo
[9] = Volume of distribution at steady state in Sprague-Dawley rat 2 mg/kg, iv within 0.17 to 24 hrs; assay type: ADME, organism-based; design: dose 2 mg/kg, route intravenous; conditions: in vivo, read-out: Vdss
[10] = Half life in Sprague-Dawley rat 2 mg/kg, iv within 0.17 to 24 hrs; assay type: ADME, organism-based; design: dose 2 mg/kg, route intravenous; conditions: in vivo
[11] = AUC in Sprague-Dawley rat at 10 mg/kg, po dosed as aqueous suspension of 1% polysorbate 80 in 0.5% methylcellulose within 0.25 to 24 hrs; assay type: ADME, organism-based; design: time 0.25-24 hr, dose 10 mg/kg, route oral; conditions: in vivo
[12] = Oral bioavailability in Sprague-Dawley rat at 10 mg/kg dosed as aqueous suspension of 1% polysorbate 80 in 0.5% methylcellulose within 0.25 to 24 hrs; assay type: ADME, organism-based; conditions: in vivo
[13] = Clearance in Sprague-Dawley rat 2 mg/kg, iv within 0.17 to 24 hrs; assay type: ADME, organism-based; design: dose 2 mg/kg, route intravenous; conditions: in vivo
Rattus norvegicus [14] = experiment: Ex vivo receptor occupancy of CRF1 receptor in Sprague-Dawley rat brain at 10 mg/kg, po after 20 mins by autoradiography relative to [125I-tyrosine]sauvagine; assay type: functional
[15] = Fraction unbound in Sprague-Dawley rat plasma at 10 mg/kg, po after 3 hrs by equilibrium dialysis; assay type: ADME, organism-based; design: dose 10 mg/kg, route oral
Rattus norvegicus [16] = experiment: Total plasma concentration in Sprague-Dawley rat at 10 mg/kg, po; assay type: ADME, organism-based; design: dose 10 mg/kg, route oral; conditions: in vivo
Rattus norvegicus [17] = experiment: Plasma free concentration in Sprague-Dawley rat at 10 mg/kg, po; assay type: ADME, organism-based; design: dose 10 mg/kg, route oral; conditions: in vivo
Rattus norvegicus [18] = experiment: Anxiolytic activity in Sprague-Dawley rat at 10 mg/kg, po assessed as decrease in exit latency after 60 mins by defensive withdrawal test relative to control; assay type: functional; design: scale not given: the % may be the effect or the level left

## COCC(COC)n1cc(Cl)nc(Nc2c(Cl)cc(C(F)(F)F)cc2Cl)c1=O
[1]
  CLint scaled at 1 µM: 53 mL/min/kg
[2]
  IC50: 8.5 nM

## Cc1cn([C@H](C)C2CC2)c(=O)c(Nc2c(C)cc(Cl)cc2C)n1
[3]
  solubility: 1360 µg/mL (≈ 4100 µM)
[4]
  bioavailability: 10%
[5]
  solubility: 13 µg/mL (≈ 39.2 µM)
[6]
  AUC: 1.7 µM·h
[2]
  IC50: 3.1 nM
[7]
  Cmax: 270 nM
[8]
  Cmax: 95 nM
[9]
  Vd: 12 L/kg
[10]
  half-life: 12 h
[11]
  AUC: 0.95 µM·h
[12]
  bioavailability: 6%
[13]
  clearance: 30 mL/min/kg

## CCOc1cc(C)c(Nc2nc(Cl)cn([C@H](C)C3CC3)c2=O)cc1C
[1]
  CLint scaled at 1 µM: 32 mL/min/kg
[2]
  IC50: 1.2 nM

## C[C@H](C1CC1)n1cc(C#N)nc(Nc2c(Cl)cc(C(F)(F)F)cc2Cl)c1=O
Rattus norvegicus [14]
  Activity: 68%
[15]
  fraction unbound at 3 h: 0.011
[1]
  CLint scaled at 1 µM: 13 mL/min/kg
[2]
  IC50: 7.5 nM
Rattus norvegicus [16]
  concentration: 1400 nM
Rattus norvegicus [17]
  Cp(f): 16 nM

## CC[C@H](C1CC1)n1cc(Cl)nc(Nc2c(Cl)cc(C#N)cc2Cl)c1=O
[1]
  CLint scaled at 1 µM: 160 mL/min/kg

## C[C@H](C1CC1)n1cc(Cl)nc(Nc2c(Cl)cc(Cl)cc2C#N)c1=O
[2]
  IC50: 18 nM

## C[C@H](C1CC1)n1cc(C#N)nc(Nc2c(Cl)cc(OC(F)F)cc2Cl)c1=O
[3]
  solubility: < 1 µg/mL
[4]
  bioavailability: 80%
[5]
  solubility: < 1 µg/mL
[6]
  AUC: 15 µM·h
Rattus norvegicus [14]
  Activity: 55%
[15]
  fraction unbound at 3 h: 0.03
[2]
  IC50: 4.3 nM
[7]
  Cmax: 1600 nM
[8]
  Cmax: 160 nM
[9]
  Vd: 13 L/kg
Rattus norvegicus [18]
  Activity: 61%
[10]
  half-life: 12 h
[11]
  AUC: 1.9 µM·h
[12]
  bioavailability: 10%
[13]
  clearance: 21 mL/min/kg

## CC[C@H](C1CC1)n1cc(Cl)nc(Nc2c(C)cc(Cl)cc2Cl)c1=O
[1]
  CLint scaled at 1 µM: 210 mL/min/kg

## C[C@H](C1CC1)n1cc(Cl)nc(Nc2c(Cl)cc(C#N)cc2Cl)c1=O
Rattus norvegicus [14]
  Activity: 11%
[15]
  fraction unbound at 3 h: 0.019
[1]
  CLint scaled at 1 µM: 58 mL/min/kg
Rattus norvegicus [16]
  concentration: 120 nM
Rattus norvegicus [17]
  Cp(f): 2.3 nM

## COc1cc(Cl)c(C)cc1Nc1nc(Cl)cn([C@H](C)C2CC2)c1=O
[2]
  IC50: 36 nM

## CC[C@H](COC)n1cc(Cl)nc(Nc2c(Cl)cc(C(F)(F)F)cc2Cl)c1=O
[1]
  CLint scaled at 1 µM: 150 mL/min/kg
[2]
  IC50: 2.3 nM

## Cc1cc(Cl)c(Nc2nc(Cl)cn([C@H](C)C3CC3)c2=O)cc1C#N
[1]
  CLint scaled at 1 µM: 160 mL/min/kg
[2]
  IC50: 19 nM

## COc1cc(Cl)c(Nc2nc(Cl)cn([C@H](C)C3CC3)c2=O)c(Cl)c1
[1]
  CLint scaled at 1 µM: 130 mL/min/kg

## C[C@@H](C1CC1)n1cc(Cl)nc(Nc2c(Cl)cc(C(F)(F)F)cc2Cl)c1=O
[2]
  IC50: 7.9 nM

## COCC(COC)Nc1nc(C)nc2c(-c3ccc(Cl)cc3Cl)c(C)nn12
[2]
  IC50: 1.2 nM
Rattus norvegicus [18]
  Activity: 61%

## COc1cc(C)c(Nc2nc(Cl)cn([C@H](C)C3CC3)c2=O)cc1OC
[1]
  CLint scaled at 1 µM: 100 mL/min/kg
[2]
  IC50: 15 nM

## COc1cc(C)c(Nc2nc(Cl)cn([C@H](C)C3CC3)c2=O)cc1C
[1]
  CLint scaled at 1 µM: 61 mL/min/kg

## C[C@H](C1CC1)n1cc(Cl)nc(Nc2cc3c(cc2Cl)OCC3)c1=O
[2]
  IC50: 120 nM

## COC[C@@H](C1CC1)n1cc(Cl)nc(Nc2c(Cl)cc(C(F)(F)F)cc2Cl)c1=O
[1]
  CLint scaled at 1 µM: 64 mL/min/kg
[2]
  IC50: 1.6 nM
